Reference: US20220031684A1, “PROPHYLACTIC EFFICACY OF SEROTONIN 4 RECEPTOR AGONISTS AGAINST STRESS” (THE TRUSTEES OF COLUMBIA UNIVERSITY IN THE CITY OF NEW YORK, priority 2019, published 2022)

System: 129S6/SvEv mice
Test: 3-shock contextual fear conditioning (CFC)
Assay type: in vivo
Settings: for freezing at re-exposure to the training context (learned fear) vs saline: re-exposure 5 days later
Experimental: This chronic CORT elevation dysregulates the hypothalamic-pituitary-adrenal axis (HPA) in a manner similar to that observed in clinical depression. The dose and duration of CORT treatment was selected based on previous studies. CORT (35 μg/ml, equivalent to about 5 mg/kg/day) dissolved in 0.45% hydroxypropyl-o-cyclodextrin (0-CD) or vehicle (VEH) (0.45% j-CD) was available ad libitum in the drinking water in opaque bottles to protect it from light. VEH- and CORT-treated water was changed every 3 days to prevent possible degradation. Contextual Fear Conditioning (CFC): A 3-shock CFC procedure was administered as previously published. Briefly, mice were placed into context A and administered 3 2-s shocks (0.75 mA) at 180 s, 240 s or 300 s following placement into context A. Mice were removed from the context 15 s following the termination of shock (at 317 s). For context retrieval, mice were placed back into context A for 300 s. Electrophysiology: Electrophysiology was conducted as previously described. Statistical Analysis: Results from data analyses are expressed as means±SEM. Alpha was set to 0.05 for all analyses. Data were analyzed using GraphPad Prism v7.0 or v8.0. For all experiments, unless otherwise noted, one- or two-way ANOVAs with repeated-measures were applied to the data as appropriate. Significant main effects and/or interactions were followed by Fisher's PLSD post hoc analysis or unpaired t-tests. Drugs: All drugs were prepared in physiological saline and all injections were administered intraperitoneally (i.p.) in volumes of 0.1 cc per […] body weight unless otherwise noted. Fluoxetine hydrochloride (Flx): Flx (BioTrend Chemicals AG, BG197, Zurich, Germany) was administered in the drinking water (18 mg/kg/day) for 3 weeks before the start of CORT. […] (R,S)-ketamine (K): (R,S)-ketamine (Ketaset III, Ketamine HCl injection, Fort Dodge Animal Health, Fort Dodge, Iowa) was administered in a single dose at 30 mg/kg of body weight 1 week before the start of CFC. […] PF-04995274: PF-04995274 (Sigma, Catalog No. 1331782-27-4, St. Louis, Mo.) was administered a single dose at 3 or 10 mg/kg of body weight 1 week before the start of CFC. PF-04995274 was dissolved in saline using an ultrasonic homogenizer (BioLogics, Model 3000, Manassas, Va.). Osmotic minipump implantation: ALZET osmotic minipumps (Model 2004, […], 28 days) were implanted subcutaneously under isoflurane anesthesia as previously described [S2]. Osmotic minipumps were rotated under the skin two to three times per week. Behavioral Assays: All experiments were approved by the Institutional Animal Care and Use Committee (IACUC) at the New York Psychiatric Institute (NYSPI). Elevated Plus Maze (EPM): Testing was performed as previously described [S3]. Briefly, the maze is a plus-cross-shaped apparatus consisting of four arms, two open and two enclosed by walls, linked by a central platform at a height of 50 cm from the floor. Mice were individually placed in the center of the maze facing an open arm and were allowed to explore the maze for 5 min. The time spent in and the number of entries into the open arms was used as an anxiety index. Videos were scored using ANY-maze behavior tracking software (Stoelting, Wood Dale, Ill.). Novelty-Suppressed Feeding: The NSF is a conflict test that elicits competing motivations: the drive to eat and the fear of venturing into the center of a brightly lit arena. The latency to feed is used as an index of anxiety-like behavior, because classical anxiolytic drugs decrease this measure. The NSF test was carried out during an 8 min period as previously described [S3]. Briefly, the testing apparatus consisted of a plastic box (50×50×20 cm), the floor of which was covered with approximately 2 cm of bedding. For 129S6/SvEv experiments, mice were food restricted for 12 h. For the C57BL/6N experiments, mice were food restricted for 24 h. […]

SMILES: CCCCN1CCC(CCC(=O)c2cc(Cl)c(N)cc2OC)CC1.Cl [RS-67,333, 1-(4-amino-5-chloro-2-methoxyphenyl)-3-[1(n-butyl)-4-piperidinyl]-1-propanone HCl]
- p, CFC Training Freezing (min 1), Saline vs. RS67333 (10 mg/kg) (FIG. 3 cohort, Fisher's PLSD): 0.9054
- p, CFC Training Freezing (min 3), RS67333 (1.5 mg/kg) vs. RS67333 (10 mg/kg) (FIG. 3 cohort, Fisher's PLSD): 0.8746
- p, CFC Training Freezing (min 3), Saline vs. RS67333 (1.5 mg/kg) (FIG. 3 cohort, Fisher's PLSD): 0.8999
- p, CFC Training Freezing (min 3), Saline vs. RS67333 (10 mg/kg) (FIG. 3 cohort, Fisher's PLSD): 0.9721
- p, CFC Training Freezing (min 4), RS67333 (1.5 mg/kg) vs. RS67333 (10 mg/kg) (FIG. 3 cohort, Fisher's PLSD): 0.7882
- p, CFC Training Freezing (min 4), Saline vs. RS67333 (1.5 mg/kg) (FIG. 3 cohort, Fisher's PLSD): 0.0168
- p, CFC Training Freezing (min 4), Saline vs. RS67333 (10 mg/kg) (FIG. 3 cohort, Fisher's PLSD): 0.0040
- p, CFC Training Freezing (min 5), RS67333 (1.5 mg/kg) vs. RS67333 (10 mg/kg) (FIG. 3 cohort, Fisher's PLSD): 0.0492
- p, CFC Training Freezing (min 5), Saline vs. RS67333 (1.5 mg/kg) (FIG. 3 cohort, Fisher's PLSD): 0.0117
- p, CFC Training Freezing (min 5), Saline vs. RS67333 (10 mg/kg) (FIG. 3 cohort, Fisher's PLSD): <0.0001
- p, CFC Training freezing (min 2), RS67333 (1.5 mg/kg) vs. RS67333 (10 mg/kg) (FIG. 3 cohort, Fisher's PLSD): 0.9854
- p, CFC Training freezing (min 2), Saline vs. RS67333 (1.5 mg/kg) (FIG. 3 cohort, Fisher's PLSD): 0.8966
- p, CFC Training freezing (min 2), Saline vs. RS67333 (10 mg/kg) (FIG. 3 cohort, Fisher's PLSD): 0.8719
- freezing at re-exposure to the training context (female 129S6/SvEv, 1.5 or 10 mg/kg vs saline, 5 days after CFC): comparable levels of freezing
- freezing during CFC training (female 129S6/SvEv, single injection 1 week before CFC, 1.5 or 10 mg/kg vs saline): comparable levels of freezing
- freezing during CFC training vs saline (male 129S6/SvEv, single i.p. injection 1 week before CFC, 30 mg/kg): significantly less freezing
- freezing at re-exposure to the training context (learned fear) vs saline (male 129S6/SvEv, single i.p. injection 1 week before CFC, 1.5 mg/kg): significantly less freezing
- freezing at re-exposure to the training context (learned fear) vs saline (male 129S6/SvEv, single i.p. injection 1 week before CFC, 10 mg/kg): significantly less freezing
